Substitutions are numbered along the chain they refer to. pIC50: −log10 of the molar value.
Legend:
[1] = biological target: T1, IDH2 R140Q (Homo sapiens, UniProt P48735, R140Q); assay: IDH2 R140Q enzymatic assay (cofactor depletion, similar format); format: biochemical; conditions: read-out: Enz R140Q
T1 sequence (P48735 40-452 R140Q): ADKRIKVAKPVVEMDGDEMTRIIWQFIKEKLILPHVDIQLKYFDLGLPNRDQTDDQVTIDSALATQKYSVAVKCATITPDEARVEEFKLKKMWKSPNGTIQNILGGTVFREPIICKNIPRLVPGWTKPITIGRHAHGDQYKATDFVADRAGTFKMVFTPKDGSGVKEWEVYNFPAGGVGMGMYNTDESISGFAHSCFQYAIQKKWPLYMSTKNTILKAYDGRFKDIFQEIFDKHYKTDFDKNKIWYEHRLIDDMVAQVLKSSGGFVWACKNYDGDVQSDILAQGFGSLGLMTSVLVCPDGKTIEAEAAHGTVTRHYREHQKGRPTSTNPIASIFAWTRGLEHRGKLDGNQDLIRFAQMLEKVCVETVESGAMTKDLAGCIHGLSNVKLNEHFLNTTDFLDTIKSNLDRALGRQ

[2] = biological target: T2, IDH2 R172K (Homo sapiens, UniProt P48735, R172K); assay: IDH2 R172K enzymatic assay (NADPH cofactor depletion, diaphorase/resazurin readout); format: biochemical; conditions: read-out: Enz R172K
T2 sequence (P48735 40-452 R172K): T1 sequence (P48735 40-452 R140Q) with Q101R, R133K
Method: Compounds are assayed for IDH2 R172K inhibitory activity through a cofactor depletion assay. […] The reaction is terminated by the addition of a second enzyme, diaphorase, and a corresponding substrate, resazurin. Diaphorase reduces resazurin to the highly fluorescent resorufin with the concomitant oxidation of NADPH to NADP, both halting the IDH2 reaction by depleting the available cofactor pool and facilitating quantitation of the amount of cofactor remaining after a specific time period through quantitative production of an easily detected fluorophore.
The test compound is then incubated for one hour at room temperature with the enzyme; before starting the IDH2 reaction with the addition of 10 μl of substrate mix containing 50 μM NADPH and 6.3 mM α-KG in the buffer described above. After a further one hour of incubation at room temperature, the reaction is halted and the remaining NADPH measured through conversion of resazurin to resorufin by the addition of 25 μl Stop Mix (36 μg/ml diaphorase enzyme and 60 μM resazurin; in buffer).

[3] = tested on: U87MG pLVX-IDH2 R140Q-neo cells; assay: U87MG pLVX-IDH2 R140Q-neo cell based assay, 2-HG in media by LC-MS at 48 hours; conditions: for pIC50: Homo sapiens, U-87 MG
Summary of the method: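 U87MG cells stably expressing IDH2 R140Q were seeded overnight, then exposed to compound at 0.2% final DMSO at 37 °C, 5% CO2. 2-HG in the medium was quantified by LC-MS at 48 h. Growth inhibition was read by CellTiter-Glo luminescence at 72 h.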

SMILES	pIC50 [1]	pIC50 [2]	pIC50 [3]	Cell R140Q [3]
CC(C)Nc1nc(Nc2ccccc2)nc(-c2ccccc2Cl)n1 [Compound 121]	> 7.00	> 7.00	> 7.00	
CC(C)Nc1nc(Nc2ccccc2)nc(-c2ccc(Cl)cc2)n1 [Compound 122]	6.00 to 7.00	5.00 to 6.00	5.00 to 6.00	
Cc1ccccc1-c1nc(Nc2ccccc2)nc(NC(C)C)n1 [Compound 123]	> 7.00	6.00 to 7.00	6.00 to 7.00	
FC(F)(F)CNc1nc(Nc2ccccc2)nc(-c2ccccc2)n1 [Compound 126]	> 7.00	6.00 to 7.00	> 7.00	
CC(C)Nc1nc(Nc2ccccc2)nc(-c2cccc(C#N)c2)n1 [Compound 128]	6.00 to 7.00	5.00 to 6.00	5.00 to 6.00	
CC(C)Nc1nc(Nc2ccncc2)nc(-c2ccccc2)n1 [Compound 129, N^2-isopropyl-6-phenyl-N^4-(pyridin-4-yl)-1,3,5-triazine-2,4-diamine]	> 7.00	5.00 to 6.00	6.00 to 7.00	
CC(C)Nc1nc(Nc2cccc(C#N)c2)nc(-c2ccccc2)n1 [Compound 130]	> 7.00	6.00 to 7.00	> 7.00	
CC(C)Nc1nc(Nc2ccc(F)cc2)nc(-c2ccccc2)n1 [Compound 132]	> 7.00	6.00 to 7.00	> 7.00	
c1ccc(Nc2nc(NCc3ccccn3)nc(-c3ccccc3)n2)cc1 [Compound 135]	6.00 to 7.00	< 5.00	5.00 to 6.00	
CC(C)Nc1nc(Nc2ccccc2)nc(-c2ccccc2C#N)n1 [Compound 139]	> 7.00	5.00 to 6.00	6.00 to 7.00	
CC(C)Nc1nc(Nc2ccc(F)cc2F)nc(-c2ccccc2)n1 [Compound 140]	> 7.00	5.00 to 6.00	6.00 to 7.00	
CC(C)Nc1nc(Nc2ccc(C#N)cc2)nc(-c2ccccc2)n1 [Compound 141]	> 7.00	6.00 to 7.00	6.00 to 7.00	
CC(C)Nc1nc(Nc2ccc(Cl)cc2)nc(-c2ccccc2)n1 [Compound 143]	> 7.00	6.00 to 7.00	6.00 to 7.00	
Cc1ccccc1Nc1nc(NC(C)C)nc(-c2ccccc2)n1 [Compound 147]	6.00 to 7.00	5.00 to 6.00	6.00 to 7.00	
CC(C)Nc1nc(Nc2ccccc2)nc(-c2ccn[nH]2)n1 [Compound 148]	6.00 to 7.00	5.00 to 6.00	6.00 to 7.00	
CC(C)Nc1nc(Nc2cccc(Cl)c2)nc(-c2ccccc2)n1 [Compound 149]	> 7.00	> 7.00	> 7.00	
CC(C)Nc1nc(Nc2cccc(CO)c2)nc(-c2ccccc2)n1 [Compound 150]	6.00 to 7.00	5.00 to 6.00	6.00 to 7.00	
CC(C)Nc1nc(Nc2ccccc2)nc(-c2cccc(S(C)(=O)=O)c2)n1 [Compound 151]	6.00 to 7.00	6.00 to 7.00	6.00 to 7.00	
CC(C)Nc1nc(Nc2cccnc2)nc(-c2ccccc2)n1 [Compound 154]	> 7.00	5.00 to 6.00	6.00 to 7.00	
CC(C)Nc1nc(Nc2ccccn2)nc(-c2ccccc2)n1 [Compound 155]	6.00 to 7.00	< 5.00		No Fit

SMILES	pIC50 [1]	pIC50 [2]	pIC50 [3]	Cell R140Q [3]
CC(C)Nc1nc(Nc2ccccc2)nc(-c2ccncc2)n1 [Compound 156]	6.00 to 7.00	5.00 to 6.00	6.00 to 7.00	
CC(C)Nc1nc(Nc2ccccc2)nc(-c2cccc(Cl)c2)n1 [Compound 158]	> 7.00	6.00 to 7.00	6.00 to 7.00	
COc1ccc(Nc2nc(NC(C)C)nc(-c3ccccc3)n2)cc1 [Compound 159]	6.00 to 7.00	5.00 to 6.00	6.00 to 7.00	
CC(C)OC(=O)Nc1nc(Nc2ccccc2)nc(-c2ccccc2)n1 [Compound 160, isopropyl 4-phenyl-6-(phenylamino)-1,3,5-triazin-2-ylcarbamate]	> 7.00	6.00 to 7.00	6.00 to 7.00	
CC(C)Nc1nc(Nc2ccccc2Cl)nc(-c2ccccc2)n1 [Compound 162]	6.00 to 7.00	5.00 to 6.00	5.00 to 6.00	
CC(C)C(=O)Nc1nc(Nc2ccccc2)nc(-c2ccccc2)n1 [Compound 167]	> 7.00	6.00 to 7.00	> 7.00	
c1ccc(Nc2nc(NC3CCOCC3)nc(-c3ccccc3)n2)cc1 [Compound 168]	> 7.00	6.00 to 7.00	> 7.00	
CC(C)Nc1nc(Nc2ccon2)nc(-c2ccccc2)n1 [Compound 169]	> 7.00	6.00 to 7.00	6.00 to 7.00	
CC(C)Nc1nc(NC(=O)Cc2ccccc2)nc(-c2ccccc2)n1 [Compound 170]	6.00 to 7.00	6.00 to 7.00	5.00 to 6.00	
O=C(Cc1ccccc1)Nc1nc(Nc2ccccc2)nc(-c2ccccc2)n1 [Compound 172]	> 7.00	6.00 to 7.00	6.00 to 7.00	
Clc1cccc(Nc2nc(NC3CCOCC3)nc(-c3ccccc3)n2)c1 [Compound 173]	> 7.00	> 7.00	> 7.00	
c1ccc(Nc2nc(NC3CCOC3)nc(-c3ccccc3)n2)cc1 (stereo not drawn) [Compound 174, N^2,6-diphenyl-N^4-(tetrahydrofuran-3-yl)-1,3,5-triazine-2,4-diamine]	> 7.00	6.00 to 7.00	> 7.00	
c1ccc(Nc2nc(NC3COC3)nc(-c3ccccc3)n2)cc1 [Compound 175, N^2-(oxetan-3-yl)-N^4,6-diphenyl-1,3,5-triazine-2,4-diamine]	> 7.00	6.00 to 7.00	> 7.00	
CC1(Nc2nc(Nc3ccccc3)nc(-c3ccccc3)n2)COC1 [Compound 176, N^2-(3-methyloxetan-3-yl)-N^4,6-diphenyl-1,3,5-triazine-2,4-diamine]	> 7.00	6.00 to 7.00	6.00 to 7.00	
CC(C)Nc1nc(Nc2cccc(S(=O)(=O)N(C)C)c2)nc(-c2ccccc2)n1 [Compound 177, 3-(4-(isopropylamino)-6-phenyl-1,3,5-triazin-2-ylamino)-N,N-dimethylbenzenesulfonamide]	> 7.00	6.00 to 7.00	> 7.00	
CC(C)Nc1nc(Nc2cccc(F)c2)nc(-c2ccccc2)n1 [Compound 178, N-(3-Fluoro-phenyl)-N′-isopropyl-6-phenyl-[1,3,5]triazine-2,4-diamine]	> 7.00	> 7.00	> 7.00	
CC(C)COC(=O)Nc1nc(Nc2ccccc2)nc(-c2ccccc2)n1 [Compound 179, Isobutyl 4-phenyl-6-(phenyl-amino)-1,3,5-triazin-2-ylcarbamate]	> 7.00	> 7.00	> 7.00	
CCOC(=O)Nc1nc(Nc2ccccc2)nc(-c2ccccc2)n1 [Compound 181, ethyl 4-phenyl-6-(phenylamino)-1,3,5-triazin-2-ylcarbamate]	> 7.00	6.00 to 7.00	> 7.00	
CC(C)(C)C(=O)Nc1nc(Nc2ccccc2)nc(-c2ccccc2)n1 [Compound 183, N-(4-phenyl-6-(phenylamino)-1,3,5-triazin-2-yl)pivalamide]	> 7.00	6.00 to 7.00	> 7.00	
CC(C)Nc1nc(Nc2ccncc2)nc(-c2cccc(F)c2)n1 [Compound 184, 6-(3-fluorophenyl)-N^2-isopropyl-N^4-(pyridin-4-yl)-1,3,5-triazine-2,4-diamine]	> 7.00	5.00 to 6.00	6.00 to 7.00	

Reference: patent publication US9512107B2, “Therapeutically active compositions and their methods of use” (Agios Pharmaceuticals, Inc., priority 2012, dated 2016)
